Assay results reported in patent US20230234996A1, “PI3K GAMMA INHIBITOR PEPTIDE FOR TREATMENT OF FIBROPROLIFERATIVE VASCULAR DISEASES” (Kither Biotech S.r.l., priority 2020, published 2023).
Entries after “also recorded” stand apart in the source; their conditions may differ.

Columns and labels:
[1] = test system: C5a-mediated Akt phosphorylation (Ser-473), relying on the catalytic activity of PI3Kγ, RAW264 macrophages; test: C5a-mediated Akt phosphorylation in macrophages (Western blot); type: cell-based; details: then C5a 5 min
Procedure: A. Schematic representation of the cell-permeable PI3Kγ competing peptide. The 126-150 region of PI3Kγ was fused to the cell-penetrating peptide Penetratin 1 (P1). A control peptide was generated by insertion of two point mutations (K>A and R>A at position 1 and 5 of the PI3Kγ sequence, respectively). B. RAW macrophages were pre-treated with vehicle, the PI3Kγ peptide (10 μM) or the PI3Kγ kinase inhibitor AS605240 (1 μM) for 1 hour and then with C5a (50 μM) for 5 minutes. Representative Western blot images of phospho-AKT (Ser-473) and total AKT (left) and ratio quantification (right) are shown. GAPDH was used as loading control. n=3. C. Incorporation by primary VSMC of a FITC-labelled PI3Kγ peptide at 1 h, 5 h, 24 h and 30 h after incubation. D. Quantification of FITC-associated fluorescence intensity inside VSMC area. C5a-mediated Akt phosphorylation in macrophages: After 3 h starvation in serum-free medium, RAW264 macrophages were pre-treated with the PI3Kγ competing peptide (25 μM) or the PI3Kγ inhibitor AS-605240 (1 μM; MedChemExpress) or DMSO for 30 min and stimulated for 5 min with 50 nM of C5a (Sigma Aldrich). Akt phosphorylation at Ser-473 was detected by Western blot using a Ser473 Akt-specific antibody (Cell Signaling Technology).

[2] = test system: intracellular cAMP in primary VSMC; test: cAMP dynamics with FRET-based TEpacVV biosensor; type: cell-based, mouse; details: for cAMP level regulated by PDE3 (cilostamide response): cilostamide 1 μM; for cAMP production in response to forskolin: Rmax = forskolin 2.5 μM + IBMX 200 μM; for cAMP level regulated by PDE4 (rolipram response): rolipram 1 μM
Procedure: A. Left panel: Average changes in intracellular cAMP concentration ([cAMP]i) in primary VSMC from WT (top), PI3Kγ KO (middle) and PI3Kγ-KD (bottom) mice and expressing the ^TEpac^VV biosensor. The black line represents the average F480/F535 emission ratio over time in response to 2.5 μM forskolin (fsk) stimulation and fsk (2.5 μM)+IBMX (200 μM) treatment. B. Histograms representing the mean values for forskolin responses. Results are expressed as a percentage of the maximal ratio change (% of Rmax(IBMX response)) determined by the final application of forskolin (2.5 μM)+IBMX (200 μM). Data shown are the means±SEM. (n=5 mice). Data are presented as mean±SEM and were compared using a Kruskal-Wallis test. C. Homogenous time-resolved fluorescence (HTRF) dosage of intracellular cAMP from WT, PI3Kγ KO or PI3Kγ KD primary VSMC after 30 min treatment with vehicle or 0.5 μM Forskolin.
A. Average changes in [cAMP]i in primary VSMC from WT (top), PI3Kγ KO (middle) and PI3Kγ-KD (bottom) mice and expressing the ^TEpac^VV biosensor. The trace indicates the average F480/F535 emission ratio over time in response to 2.5 μM forskolin, cilostamide (1 μM), rolipram (1 μM) and forskolin (2.5 μM)+IBMX (200 μM) treatment. B. Histograms representing the mean values for rolipram and cilostamide responses. Results are expressed as a percentage of the maximal ratio change (% of Rmax (IBMX response)) determined by the final application of forskolin (2.5 μM)+IBMX (200 μM). Data are presented as mean±SEM (n>22 with 4 different mice) and were compared using a Kruskal-Wallis test. C. Phosphodiesterase activity detected in PDE4D immunoprecipitates from primary VSMC. Data shown are the means±SEM and compared using one-way ANOVA followed by Bonferroni post-hoc test (n=3). D. Representative Western blot of PDE4D immunoprecipitates.
Measurement of cAMP dynamics: Primary SMC were seeded on coverslips and infected with the ^TEpac^VV-encoding type-5 adenovirus (˜100 particles per SMC) as described elsewhere. Coverslips were placed in a microscope chamber continually perfused (2 mL·min^−1) with BBS buffer (125 mM NaCl, 2 mM CaCl2), 1 mM MgCl2, 1.25 mM NaH2PO4, 26 mM NaHCO3, 25 mM glucose) saturated with 95% 02-5% CO2. Ratiometric analyses were performed as follows: fluorescence was excited with a LED source at 435 nm and fluorescence emission was monitored with a dichroic mirror (T450LPXR) and alternating emission filters for the donor (HQ480/40) and acceptor (D535/40). Pairs of images were recorded with an Orca-ER CCD camera (Hamamatsu Photonics, Japan), at 20-s intervals. Changes in [cAMP]i are expressed as the ratio of donor fluorescence (F480) to acceptor fluorescence (F535). The ratios were multiplied by a same constant for all experiments, such that the baseline ratio was 1 in basal conditions. The maximum ratio change (Rmax) was obtained by stimulating cells with 2.5 μM forskolin and […] IBMX (15879, Sigma Aldrich). Filters and mirrors were obtained from AHF analysentechnik AG, Tübingen, Germany.

PKA = details: reference [19]; cited from earlier work
primary VSMC = test: Mouse SMC proliferation by BrdU incorporation; type: cell-based; details: for cell proliferation (BrdU incorporation): 25 μM peptide 24 h, PDGF 25 ng/ml with or without forskolin 25 μM, vs control peptide
Procedure: A. Representatives cross sections of injured femoral arteries stained with Masson Trichrome from the indicated hematopoietic chimeras. Scale bars=100 μM. Irradiated WT, PI3Kγ KD (KD) and PI3Kγ KO recipient mice were transplanted with bone marrow from the indicated donors to obtain the indicated chimeras. Irradiated WT mice were transplanted with bone marrow from WT, PI3Kγ KD or PI3Kγ KO to obtain the following hematopoietic chimeras: WT>WT, KD>WT and KO>WT. Irradiated KD recipient mice were transplanted with bone marrow from WT or PI3Kγ KD donor mice (WT>KD; KD>KD). Irradiated KO recipient mice were transplanted with bone marrow from WT or KO donors (WT>KO and KO>KO). B. Quantitative analysis of intima/media ratios of indicated hematopoietic chimeras. Histogram represents the neointima/media ratio for each chimera (n>6 mice for each group). Data are presented as mean±SEM and were compared using a one-way ANOVA test. C. Schematic representation of the experimental model used to investigate PI3Kγ implication in the control of SMC proliferation. D. Western blot of PI3Kγ expression in each genotype. […] (5<n<12 cultures for each genotype). Data are presented as mean±SEM and were compared using a one-way ANOVA test.
A, B, C. […] BrdU was added during the last 18 h (n=8 cultures for each genotype). Data are presented as mean±SEM and were compared using a one-way ANOVA test. D. Schematic model of PI3Kγ implication in VSMC proliferation. VSMC proliferation is induced by PDGF stimulation. […] This PI3Kγ recruitment could also concentrate phosphodiesterases (PDE) that counterbalance cAMP production by adenylate cyclase (AC) induced by other signals. By these mechanisms, PI3Kγ acts as an amplifier of VSMC synthetic transition.
Measure of mouse SMC proliferation: Primary mouse SMCs were sub-cultured onto 48-well cell culture plates in complete medium. Cells were treated or not with PDGF (520-BB-050, R&D Systems) and forskolin (F3917, Sigma Aldrich) for 24 h. For blocking peptide experiments, cells were incubated 24 h with 25 μM of control ([…]—SEQ ID No.: 13) or blocking peptide ([…]—SEQ ID No.: 14). Peptides were synthesized by GenScript (GenScript, Piscataway, N.J.). BrdU (00-0103, Invitrogen) incorporation assays were performed by classical immunofluorescence procedure using anti-BrdU antibody (11-5071, eBioscience) and DAPI. Proliferation rate is measured as the ratio of BrdU positive nuclei over total nuclei and expressed as fold increase.

PDE4D = PDE4D function in VSMC; type: cell-based; details: summary statement
[3] = forskolin-stimulated PI3Kγ-KD VSMC
[4] = forskolin-stimulated PI3Kγ-KO VSMC

## O=C1NC(=O)/C(=C\c2ccc3nccnc3c2)S1 [AS-6052540]
[1]; RAW macrophages pre-treated with inhibitor 1 μM
  C5a-mediated Akt phosphorylation in macrophages: significantly reduced

## CN(C(=O)CCCOc1ccc2[nH]c(=O)ccc2c1)C1CCCCC1 [cilostamide]
[2]; [3]
  cAMP level regulated by PDE3 (cilostamide response): 17 % of IBMX response
[2]; [4]
  cAMP level regulated by PDE3 (cilostamide response): 49 % of IBMX response
[2]; forskolin-stimulated WT VSMC
  cAMP level regulated by PDE3 (cilostamide response): 25 % of IBMX response

## C=C[C@@]1(C)CC(=O)[C@]2(O)[C@@]3(C)[C@@H](O)CCC(C)(C)[C@@H]3[C@H](O)[C@H](OC(C)=O)[C@@]2(C)O1 [forskolin]
[2]; 2.5 μM forskolin, PI3Kγ-KO primary VSMC
  cAMP production in response to forskolin: 52.57 % of IBMX response
[2]; 2.5 μM forskolin, WT primary VSMC
  cAMP production in response to forskolin: 24.09 % of IBMX response
[2]; 2.5 μM forskolin, p=0.03
  increase of forskolin cAMP response, PI3Kγ-KO compared to WT: 2.2 folds

## COc1ccc(C2CNC(=O)C2)cc1OC1CCCC1 (stereo not drawn) [rolipram]
[2]; [3]
  cAMP level regulated by PDE4 (rolipram response): 73 % of IBMX response
[2]; [4]
  cAMP level regulated by PDE4 (rolipram response): 43 % of IBMX response
[2]; forskolin-stimulated WT VSMC
  cAMP level regulated by PDE4 (rolipram response): 67 % of IBMX response

## RQIKIWFQNRRMKWKKGAATHASPGQIHLVQRHPPSEESQAF (control peptide)
PKA
  interaction with PKA: does not interact with PKA

## RQIKIWFQNRRMKWKKGKATHRSPGQIHLVQRHPPSEESQAF (KIT2014) [PI3Kγ peptide, The 126-150 region of PI3Kγ fused to the cell-penetrating peptide Penetratin 1 (P1)]
[1]; RAW macrophages pre-treated with PI3Kγ peptide (25 μM b74; 10 μM b24)
  C5a-mediated Akt phosphorylation in macrophages: unaltered
Primary VSMC; PI3Kγ-KD primary VSMC
  cell proliferation (BrdU incorporation): inhibited cell proliferation
Primary VSMC; PI3Kγ-KO primary VSMC
  cell proliferation (BrdU incorporation): no difference was observed
Primary VSMC; VSMC in vitro, response to PDGF and forskolin, genotype not stated (summary statement)
  VSMC proliferation: abolished VSMC proliferation; also recorded: inhibits VSMC proliferation
Primary VSMC; WT primary VSMC
  cell proliferation (BrdU incorporation): inhibited cell proliferation
[2]; peptide conjugated with Penetratin 1, summary statement
  cAMP levels in VSMC: increases their cAMP levels
PDE4D
  PDE4D function: specifically blunted PDE4D function
